One data set has as its system Candida albicans. In words: inhibitory effect, antifungal test disk (Test Example 2). It is filed as cell-based. The following applies: 8 mm disk, 0.005 g active ingredient.
Data set [1] concerns Trichophyton mentagrophytes. Described as above. The class given is cell-based. The following applies: 8 mm disk, 0.005 g active ingredient.
Text: (§1) Each test fungal liquid was mixed with a Sabouraud's agar medium containing 0.1% of Tween 80 to form a multilayered fungal agar film, which was then solidified.
The test system of a further data set is Aspergillus fumigatus. The description is as above. The class given is cell-based. The following applies: 8 mm disk, 0.005 g active ingredient.
In another data set the test system is Cryptococcus neoformans. The description is as above. It is filed as cell-based. The following applies: 8 mm disk, 0.005 g active ingredient.
Data set [2] can be described thus: solubility in phosphate buffer solution.
Data set [3] is described as follows: acute toxicity, LD50 oral. The following applies: mouse, in vivo, comparison with NT-72 orally in mice, source not stated.
Data set [4] concerns medical fungi (Aspergillus, Candida, Trichophyton). Put plainly: growth inhibition of fungi (general statements). It is filed as cell-based. How it is done:
Each of the components is separated and tested with respect to the activity of growth inhibition of Aspergillus fumigatus, Candida albicans and Trichophyton mentagrophytes, respectively, according to the disk method.
Using 0.01 ml. of the resulting solution, the growth inhibitory effect of each powder against fungi was tested according to the disk method.

Where a name gives a salt, the structure may show the parent alone.

Text for Aspergillus fumigatus: as §1
Text for Candida albicans: as §1
Text for Cryptococcus neoformans: as §1

In the case of `C[C@@H]1[C@H](O)[C@@H](C)/C=C/C=C/C=C/C=C/C=C/C=C/C=C/[C@H](O[C@@H]2O[C@H](C)[C@@H](O)[C@H](N)[C@@H]2O)C[C@@H]2O[C@](O)(C[C@@H](O)C[C@@H](O)[C@H](O)CC[C@@H](O)C[C@@H](O)CC(=O)O[C@H]1C)C[C@H](O)[C@H]2C(=O)O` [Amphotericin B], in the data set on Candida albicans, the inhibitory circle diameter is 11 mm and the “inhibitory circle diameter (Trace)” value was 14 mm. In data set [1], this compound displayed an inhibitory circle diameter of 8.5 mm.
Take `Clc1ccccc1C(c1ccccc1)(c1ccccc1)n1ccnc1` [Byb 5097]: the inhibitory circle diameter in the data set with Aspergillus fumigatus is on record as 12.5 mm; in the data set on Candida albicans, 17 mm; in data set [1] it was 24 mm. The “inhibitory circle diameter (Trace)” value was determined as 18 mm with Aspergillus fumigatus (trace), 22 mm with Candida albicans and 18 mm with Cryptococcus neoformans (trace). The “solubility in the phosphate buffer solution” value in data set [2] is “not sufficiently soluble”.
For `C[C@@H]1[C@H](O)[C@@H](C)/C=C/C=C/CC/C=C/C=C/C=C/C=C/C(O[C@H]2O[C@H](C)[C@@H](O)[C@H](N)[C@@H]2O)CC2O[C@](O)(CC(O)C(O)CCC(O)CC(O)CC(O)CC(=O)O[C@H]1C)CC(O)C2C(=O)O` (some centres unmarked) [Nystatin], the inhibitory circle diameter is on record as 12 mm in the data set on Aspergillus fumigatus, 21 mm with Candida albicans, 12.5 mm in data set [1] and 11 mm in the data set on Cryptococcus neoformans. Besides, in data set [2], the “solubility in the phosphate buffer solution” value was “not sufficiently soluble”.
In data set [3], `COc1ccc2cc3[n+](cc2c1OC)CCc1cc2c(cc1-3)OCO2` [berberine hydrochloride] had an LD50 of 60 to 70 mg/kg. In data set [4], the “activity of butanol extract after sodium borohydride reduction” value is “does not show the activity”.

For the origin of these results see patent US4200629A, “Anti-fungal substance and preparing method thereof” (priority 1977, dated 1980).
